In patent US9822373B2, “Mutant cells for protein secretion and lignocellulose degradation” (The Regents of the University of California, priority 2011, dated 2017):

Legend:
Neurospora crassa [1] = assay: Avicel hydrolysis assay with shake flask culture supernatants; assay type: cell-based
Experimental: Cultures were grown in 1% sucrose for 24 hours followed by the addition of 2% sucrose or 0.2% cellobiose. Supernatant was harvested after 24 (WT, Δ3βG and Δ3βGΔcre) or 72 hours (Δ3βG). The WT Avicel® culture was grown for 5 days on 2% Avicel®, Δ3βG was grown in 1% sucrose for 24 hours followed by 48 hours in 1% Avicel® and Δ3βGΔcre was grown in 1% sucrose for 24 hours followed by 24 hours in 1% Avicel®.
Total Avicelase activity was conducted in 250 mL media bottles incubated at 50° C. on a orbital shaker at 200 rpm. Each bottle contained 1% cellulose (Avicel®) and 50 mM (pH 5.0) sodium acetate in a working volume of 50 mL. Tetracycline (10 μg/mL) was added to prevent microbial contamination. Bioreactor culture broth samples were buffer exchanged using a 10 kDa MWCO centrifugal filter to remove any soluble sugars prior to initiating hydrolysis experiments. After pre-incubating the hydrolysis mixture to 50° C., enzyme was added (1 mL filtered culture broth). Samples were taken every 4 hours for the first 12 hours and then every 12 hours thereafter for a total of 48 hours. Hydrolysis experiments were performed in triplicate.
(§1) Sucrose, fructose, glucose and cellobiose were measured on a DIONEX ICS-3000 HPLC (Dionex Corp., Sunnyvale, Calif.) using a CarboPac PA20 Analytical Column (3×150 mm) and a CarboPac PA20 guard column (3×30 mm) at 30° C. Following injection of 25 μl of diluted samples, elution was performed with 100 mM KOH (isocratic) at 0.4 ml/min. Sugars were detected using PAD, Four-Potential Carbohydrate Waveform and Peaks were analyzed using the Chromeleon software package.

NCU07760 (gh61-2) = assay: mRNA sequencing (RNA-Seq), transcript abundance of gh61-2; assay type: cell-based, Neurospora crassa; conditions: Δ3βG mutant; 4 hours after transfer to 0.2% cellobiose
Experimental: Conidia from strains were inoculated at an OD595 equal to 0.05 in 50 ml Vogel's salts (45) with 2% w/v sucrose in a 250 ml Erlenmeyer flask and grown under constant light at 200 rpm for 16 hours. Biomass was then spun at 4200 rpm for 10 minutes and washed in Vogel's salts twice to remove any excess sucrose. Biomass was then added to a new flask containing 50 ml Vogel's salts supplemented with 1% w/v sucrose, 0.2% w/v cellobiose (Sigma) or 1% w/v Avicel® PH 101 (Sigma). Cultures were induced for 4 hrs under constant light at 200 rpm. The culture biomass was then harvested by filtration over a Whatman glass microfiber filter (GF/F) on a Buchner funnel and washed with 50 ml Vogel's salts. The biomass was flash frozen in liquid nitrogen and stored at −80° C. Three independent biological duplicates (flasks) were evaluated for each time point.
Total RNA from frozen samples was isolated using Zirconia/Silica beads (0.5 mm diameter; Biospec) and a Mini-Beadbeater-96 (Biospec) with 1 mL TRIzol reagent (Invitrogen) according to the manufacturer's instructions. […]
mRNA sequencing was performed using an Illumina kit (RS-100-0801) with isolated RNA. The final cDNA library was quantified by an Agilent bioanalyzer 2000 and sequenced using an Illumina Genome Analyzer-II using standard Illumina operating procedures. […]

Neurospora crassa [2] = assay: Total Avicelase activity of bioreactor culture supernatant; assay type: cell-based; conditions: supernatant of the 24-hour induction time point
Experimental: Cellulase production was carried out in a 3.7 L bioreactor (BioEngineering AG) at an operating volume of 1 L. The bioreactor was equipped with one 48 mm Rushton impeller and four equally spaced baffles to provide adequate mixing. Impeller speed was controlled at 200 rpm for 8 hours to allow spore germination followed by 500 rpm for the remainder of the experiment. The temperature was maintained at 25° C., and medium pH was controlled at 5.5 using 40% phosphoric acid and 1:5 diluted ammonium hydroxide. The dissolved oxygen was maintained at a level greater than 20% of the saturation value of the medium by varying the aeration rate between 0.5 and 3 VVM in response to the dissolved oxygen tension. Minimal growth medium with 1% w/v sucrose as the sole carbon source (unless otherwise noted) was inoculated with 10^9 conidia. After 24 hours initial growth, cellulase production was induced with either cellobiose or Avicel® added to a final concentration of 0.2% w/v. […]
as §1, with “Following injection of 25 μl of diluted samples, elution was performed with 100 mM KOH (isocratic) at 0.4 ml/min.” left out

O=C[C@H](O)[C@@H](O)[C@H](O[C@@H]1O[C@H](CO)[C@@H](O)[C@H](O)[C@H]1O)[C@H](O)CO [cellobiose]
hydrolysis of crystalline cellulose by culture supernatant (Neurospora crassa [1]; WT cultures grown on or induced with the substance): did not | hydrolysis of crystalline cellulose by culture supernatant (Neurospora crassa [1]; Δ3βG cultures grown on or induced with the substance): hydrolyzed crystalline cellulose | hydrolysis of crystalline cellulose by culture supernatant (Neurospora crassa [1]; Δ3βGΔcre cultures grown on or induced with the substance): hydrolyzed crystalline cellulose | FPKM of NCU07760 (gh61-2) (NCU07760 (gh61-2)): 538 FPKM | aggregate Avicelase activity, glucose equivalents (Neurospora crassa [2]; Δ3βG strain): 0.296 mg/mL | aggregate Avicelase activity, glucose equivalents (Neurospora crassa [2]; Δ3βGΔcre strain): 0.424 mg/mL
